Assay: Quantification of garlic-derived metabolites in human urine after ingestion of 3 g raw garlic (SIDA, SAFE, HRGC-MS / HRGC-GC-MS)
Assay type: in vivo
Details: for metabolite concentration in urine / metabolite concentration in urine, creatinine-normalized: 3 g raw garlic
Text: Human urine samples were obtained from 18 volunteers (age 22–38 years, mean 27 years; 11 females, 7 males); thereby, one volunteer conducted the whole experimental series twice. At the time of examination, volunteers reported no known illness that might have potentially influenced the metabolism or the excretion of urine. The test persons were instructed to avoid foods that were rich in sulfur-containing substances at the testing day as well as 2 days preceding the testing day, namely garlic, onion, wild garlic, chives, cabbage, and leek, and were only allowed to consume the garlic sample provided in the course of the experiments. Additionally, subjects were asked to keep records of the food (including food supplements) and beverages they consumed during these 3 testing days. Generally, the overall panelists' requirements were in accordance with our previous studies ([5], [16]).
On the sampling day, the outer garlic cloves of a whole garlic bulb were peeled and cut into ~3 mm cubes by using a garlic cutter (Genius GmbH, Limburg/Lahn, Germany). Subsequently these cubes were thoroughly mixed and aliquoted into 3 g portions. Three to four test persons conducted the experiment at the same day. Each test person was asked to ingest a garlic portion of 3 g. In total, eight consecutive urine samples were provided by each test person, comprising one whole urine set. The samples were collected in sterile brown glass bottles, with sampling times as follows: one sample was provided directly prior to garlic consumption. The series of the second to eighth sample was then obtained at about 0.5, 1, 2, 4, 6, 8, and 24 h after garlic consumption, respectively. Between the first urine sample (prior to garlic consumption) and the seventh urine sample (8 h after garlic consumption) test persons only spent urine at the specific time points mentioned before. Another sample was provided at the next morning (24 h after garlic consumption). Between the samples provided 8 and 24 h after garlic consumption no urine was collected. All samples were immediately placed into a −80°C freezer and were kept frozen until further analysis.
The samples of each set were termed according to their sampling time. The following list provides the time intervals that are related to the respective sample name: • - pre: before garlic consumption • - 0.5 h post: 0.4–0.8 h after garlic consumption • - 1 h post: 0.9–1.3 h after garlic consumption • - 2 h post: 1.8 h−2.2 h after garlic consumption • - 4 h post: 3.8–4.4 h after garlic consumption • - 6 h post: 5.8–6.4 h after garlic consumption • - 8 h post: 7.8–8.4 h after garlic consumption • - 24 h post: 23.8–25.6 h after garlic consumption
A creatinine kit (Labor+Technik Eberhard Lehmann GmbH, Berlin, Germany) was used to determine the creatinine content in each urine sample. The determination principle of this kit is based on the reaction of creatinine with picric acid under basic conditions (Jaffé reaction). The formed complex was detected photometrically at a wavelength of 492 nm.
For quantification purposes, the deuterated standards ^2H3-AMS, ^2H3-AMSO, and ^2H3-AMSO2 were added to the sample and stirred for 10 min. Subsequently, DCM was added in a ratio of 1:2 (DCM/human urine; v/v) and this solution was stirred for further 30 min at room temperature. To isolate the volatile fraction from the urine samples we then applied SAFE-distillation ([17]), thereby distilling the respective samples at 50°C. After completion of the distillation process, 10 mL of DCM were applied in each case to rinse the SAFE apparatus and to ensure complete transition of the volatile compounds. This process was repeated with another 10 mL of DCM. After thawing, the obtained aqueous distillate phase was extracted three times with 25 mL DCM. The organic phases were combined, dried over anhydrous Na2SO4 and concentrated to a total volume of 100 μL by means of Vigreux distillation and subsequent micro-distillation at 50°C. […]

## C=CCSC [AMS, allyl methyl sulfide]
3 g raw garlic in both studies, milk data ref 20
  concentration in urine compared with human milk: comparable excretion levels in both media
U I, 0.5 h post (0.55 h)
  metabolite concentration in urine: 0.9 µg/kg
  metabolite concentration in urine, creatinine-normalized: 0.1 µg/mmol creatinine
U I, 1 h post (1.03 h)
  metabolite concentration in urine: 0.7 µg/kg
  metabolite concentration in urine, creatinine-normalized: 0.8 µg/mmol creatinine
U I, 2 h post (2.05 h)
  metabolite concentration in urine: 1.7 µg/kg
  metabolite concentration in urine, creatinine-normalized: 0.8 µg/mmol creatinine
U I, 4 h post (4.05 h)
  metabolite concentration in urine: 1.6 µg/kg
  metabolite concentration in urine, creatinine-normalized: 0.2 µg/mmol creatinine
U I, 6 h post (6.05 h)
  metabolite concentration in urine: 1.5 µg/kg
  metabolite concentration in urine, creatinine-normalized: 0.2 µg/mmol creatinine
U I, 8 h post (8.05 h)
  metabolite concentration in urine: 0.7 µg/kg
  metabolite concentration in urine, creatinine-normalized: 0.1 µg/mmol creatinine
U I, 24 h post (25.55 h)
  metabolite concentration in urine: traces^1
  metabolite concentration in urine, creatinine-normalized: traces^1
U I, pre (-0.03 h)
  metabolite concentration in urine: < LOD^1
  metabolite concentration in urine, creatinine-normalized: < LOD^1
U II, 0.5 h post (0.50 h)
  metabolite concentration in urine: 0.5 µg/kg
  metabolite concentration in urine, creatinine-normalized: 0.1 µg/mmol creatinine
U II, 1 h post (1.00 h)
  metabolite concentration in urine: 0.9 µg/kg
  metabolite concentration in urine, creatinine-normalized: 0.3 µg/mmol creatinine
U II, 2 h post (2.00 h)
  metabolite concentration in urine: 0.5 µg/kg
  metabolite concentration in urine, creatinine-normalized: 0.4 µg/mmol creatinine
U II, 4 h post (4.00 h)
  metabolite concentration in urine: 0.7 µg/kg
  metabolite concentration in urine, creatinine-normalized: 0.1 µg/mmol creatinine
U II, 6 h post (6.00 h)
  metabolite concentration in urine: 0.4 µg/kg
  metabolite concentration in urine, creatinine-normalized: 0.04 µg/mmol creatinine
U II, 8 h post (8.00 h)
  metabolite concentration in urine: 0.2 µg/kg
  metabolite concentration in urine, creatinine-normalized: 0.02 µg/mmol creatinine
U II, 24 h post (24.12 h)
  metabolite concentration in urine: traces^1
  metabolite concentration in urine, creatinine-normalized: traces^1
U II, pre (-0.13 h)
  metabolite concentration in urine: < LOD^1
  metabolite concentration in urine, creatinine-normalized: < LOD^1
U III, 0.5 h post (0.53 h)
  metabolite concentration in urine: 0.6 µg/kg
  metabolite concentration in urine, creatinine-normalized: 0.3 µg/mmol creatinine
U III, 1 h post (1.07 h)
  metabolite concentration in urine: 0.6 µg/kg
  metabolite concentration in urine, creatinine-normalized: 0.8 µg/mmol creatinine
U III, 2 h post (2.18 h)
  metabolite concentration in urine: 1.2 µg/kg
  metabolite concentration in urine, creatinine-normalized: 0.7 µg/mmol creatinine
U III, 4 h post (4.35 h)
  metabolite concentration in urine: 0.8 µg/kg
  metabolite concentration in urine, creatinine-normalized: 0.3 µg/mmol creatinine
U III, 6 h post (6.35 h)
  metabolite concentration in urine: 0.6 µg/kg
  metabolite concentration in urine, creatinine-normalized: 0.1 µg/mmol creatinine
U III, 8 h post (8.43 h)
  metabolite concentration in urine: 0.4 µg/kg
  metabolite concentration in urine, creatinine-normalized: 0.1 µg/mmol creatinine
U III, 24 h post (23.90 h)
  metabolite concentration in urine: traces^1
  metabolite concentration in urine, creatinine-normalized: traces^1
U III, pre (-0.03 h)
  metabolite concentration in urine: traces^1
  metabolite concentration in urine, creatinine-normalized: traces^1
U IV, 0.5 h post (0.55 h)
  metabolite concentration in urine: 0.7 µg/kg
  metabolite concentration in urine, creatinine-normalized: 0.1 µg/mmol creatinine
U IV, 1 h post (1.05 h)
  metabolite concentration in urine: 0.7 µg/kg
  metabolite concentration in urine, creatinine-normalized: 0.5 µg/mmol creatinine
U IV, 2 h post (2.12 h)
  metabolite concentration in urine: 0.7 µg/kg
  metabolite concentration in urine, creatinine-normalized: 0.4 µg/mmol creatinine
U IV, 4 h post (4.05 h)
  metabolite concentration in urine: 0.8 µg/kg
  metabolite concentration in urine, creatinine-normalized: 0.2 µg/mmol creatinine
U IV, 6 h post (6.08 h)
  metabolite concentration in urine: 0.6 µg/kg
  metabolite concentration in urine, creatinine-normalized: 0.04 µg/mmol creatinine
U IV, 8 h post (8.05 h)
  metabolite concentration in urine: 0.3 µg/kg
  metabolite concentration in urine, creatinine-normalized: 0.1 µg/mmol creatinine
U IV, 24 h post (24.03 h)
  metabolite concentration in urine: 0.5 µg/kg
  metabolite concentration in urine, creatinine-normalized: 0.1 µg/mmol creatinine
U IV, pre (-0.05 h)
  metabolite concentration in urine: < LOD^1
  metabolite concentration in urine, creatinine-normalized: < LOD^1
U IX, 0.5 h post (0.67 h)
  metabolite concentration in urine: 1.0 µg/kg
  metabolite concentration in urine, creatinine-normalized: 0.9 µg/mmol creatinine
U IX, 1 h post (1.17 h)
  metabolite concentration in urine: 1.5 µg/kg
  metabolite concentration in urine, creatinine-normalized: 1.4 µg/mmol creatinine
U IX, 2 h post (1.83 h)
  metabolite concentration in urine: 1.4 µg/kg
  metabolite concentration in urine, creatinine-normalized: 1.2 µg/mmol creatinine
U IX, 4 h post (4.17 h)
  metabolite concentration in urine: 2.5 µg/kg
  metabolite concentration in urine, creatinine-normalized: 0.5 µg/mmol creatinine
U IX, 6 h post (6.08 h)
  metabolite concentration in urine: 1.7 µg/kg
  metabolite concentration in urine, creatinine-normalized: 0.5 µg/mmol creatinine
U IX, 8 h post (8.08 h)
  metabolite concentration in urine: 0.8 µg/kg
  metabolite concentration in urine, creatinine-normalized: 0.1 µg/mmol creatinine
U IX, 24 h post (24.00 h)
  metabolite concentration in urine: traces^1
  metabolite concentration in urine, creatinine-normalized: traces^1
U IX, pre (-0.08 h)
  metabolite concentration in urine: < LOD^1
  metabolite concentration in urine, creatinine-normalized: < LOD^1
U V, 0.5 h post (0.50 h)
  metabolite concentration in urine: 0.5 µg/kg
  metabolite concentration in urine, creatinine-normalized: 0.7 µg/mmol creatinine
U V, 1 h post (1.00 h)
  metabolite concentration in urine: 0.7 µg/kg
  metabolite concentration in urine, creatinine-normalized: 0.8 µg/mmol creatinine
U V, 2 h post (2.00 h)
  metabolite concentration in urine: 0.7 µg/kg
  metabolite concentration in urine, creatinine-normalized: 0.8 µg/mmol creatinine
U V, 4 h post (4.00 h)
  metabolite concentration in urine: 0.9 µg/kg
  metabolite concentration in urine, creatinine-normalized: 0.3 µg/mmol creatinine
U V, 6 h post (6.00 h)
  metabolite concentration in urine: 0.7 µg/kg
  metabolite concentration in urine, creatinine-normalized: 0.1 µg/mmol creatinine
U V, 8 h post (8.00 h)
  metabolite concentration in urine: 0.3 µg/kg
  metabolite concentration in urine, creatinine-normalized: 0.2 µg/mmol creatinine
U V, 24 h post (24.00 h)
  metabolite concentration in urine: traces^1
  metabolite concentration in urine, creatinine-normalized: traces^1
U V, pre (-0.05 h)
  metabolite concentration in urine: < LOD^1
  metabolite concentration in urine, creatinine-normalized: < LOD^1
U VI, 0.5 h post (0.50 h)
  metabolite concentration in urine: 1.1 µg/kg
  metabolite concentration in urine, creatinine-normalized: 0.5 µg/mmol creatinine
U VI, 1 h post (1.00 h)
  metabolite concentration in urine: 0.7 µg/kg
  metabolite concentration in urine, creatinine-normalized: 0.6 µg/mmol creatinine
U VI, 2 h post (2.00 h)
  metabolite concentration in urine: 1.0 µg/kg
  metabolite concentration in urine, creatinine-normalized: 0.9 µg/mmol creatinine
U VI, 4 h post (4.00 h)
  metabolite concentration in urine: 1.2 µg/kg
  metabolite concentration in urine, creatinine-normalized: 0.3 µg/mmol creatinine
U VI, 6 h post (6.00 h)
  metabolite concentration in urine: 0.9 µg/kg
  metabolite concentration in urine, creatinine-normalized: 0.2 µg/mmol creatinine
U VI, 8 h post (8.00 h)
  metabolite concentration in urine: 0.5 µg/kg
  metabolite concentration in urine, creatinine-normalized: 0.1 µg/mmol creatinine
U VI, 24 h post (24.17 h)
  metabolite concentration in urine: traces^1
  metabolite concentration in urine, creatinine-normalized: traces^1
U VI, pre (-0.05 h)
  metabolite concentration in urine: < LOD^1
  metabolite concentration in urine, creatinine-normalized: < LOD^1
U VII, 0.5 h post (0.50 h)
  metabolite concentration in urine: 0.6 µg/kg
  metabolite concentration in urine, creatinine-normalized: 0.5 µg/mmol creatinine
U VII, 1 h post (1.08 h)
  metabolite concentration in urine: 1.3 µg/kg
